According to patent US20170087174A1, “COMBINATION THERAPY REGIMEN FOR TREATMENT OF HCV” (JANSSEN PHARMACEUTICALS, INC., priority 2015, published 2017):
Where two headings read alike, the source gives them in different places.

What was measured:
[1] = test system: CYP (cytochrome P450 enzymes); experiment: CYP inhibition in vitro; conditions: on any CYP
[2] = Phase-1 drug-drug interaction study in healthy volunteers (Compound (III) 800 mg, SMV 150 mg, Odalasvir 150 mg loading then 50 mg, once daily): plasma PK; format: in vivo, human; conditions: both, human, in vivo
Text: The following daily doses were employed:

[3] = Phase 2a open-label combination study: pharmacokinetics (exposure); format: in vivo, human; conditions: in vivo
Procedure: A randomized, Phase 2a, open-label study was carried out to evaluate the safety, pharmacokinetics and efficacy of the combination of Compound (III), Odalasvir and Simeprevir in Genotype 1 treatment-naïve subjects with chronic hepatitis C. Other treatment-naïve subjects included Genotype 2, 3, 4, 5 and 6.
The aim of the study was to determine the efficacy, pharmacokinetics (PK), and safety of Compound (III)+Odalasvir±SMV in HCV-infected subjects.
This was an open-label study evaluating various dosing regimens of Compound (III)+Odalasvir±SMV for 6-8 weeks in treatment-naïve HCV-infected subjects with varying clinical characteristics (e.g., GT 1 or 3, presence/absence of compensated Child Pugh A cirrhosis). Efficacy, PK and safety evaluations were conducted during and through 24 weeks post dosing. Up to 15 cohorts were enrolled; data was generated from cohorts that have completed dosing.

BSEP = BSEP (Homo sapiens, UniProt O95342); conditions: in vitro, cited from earlier work
BSEP, sequence (O95342 whole entry): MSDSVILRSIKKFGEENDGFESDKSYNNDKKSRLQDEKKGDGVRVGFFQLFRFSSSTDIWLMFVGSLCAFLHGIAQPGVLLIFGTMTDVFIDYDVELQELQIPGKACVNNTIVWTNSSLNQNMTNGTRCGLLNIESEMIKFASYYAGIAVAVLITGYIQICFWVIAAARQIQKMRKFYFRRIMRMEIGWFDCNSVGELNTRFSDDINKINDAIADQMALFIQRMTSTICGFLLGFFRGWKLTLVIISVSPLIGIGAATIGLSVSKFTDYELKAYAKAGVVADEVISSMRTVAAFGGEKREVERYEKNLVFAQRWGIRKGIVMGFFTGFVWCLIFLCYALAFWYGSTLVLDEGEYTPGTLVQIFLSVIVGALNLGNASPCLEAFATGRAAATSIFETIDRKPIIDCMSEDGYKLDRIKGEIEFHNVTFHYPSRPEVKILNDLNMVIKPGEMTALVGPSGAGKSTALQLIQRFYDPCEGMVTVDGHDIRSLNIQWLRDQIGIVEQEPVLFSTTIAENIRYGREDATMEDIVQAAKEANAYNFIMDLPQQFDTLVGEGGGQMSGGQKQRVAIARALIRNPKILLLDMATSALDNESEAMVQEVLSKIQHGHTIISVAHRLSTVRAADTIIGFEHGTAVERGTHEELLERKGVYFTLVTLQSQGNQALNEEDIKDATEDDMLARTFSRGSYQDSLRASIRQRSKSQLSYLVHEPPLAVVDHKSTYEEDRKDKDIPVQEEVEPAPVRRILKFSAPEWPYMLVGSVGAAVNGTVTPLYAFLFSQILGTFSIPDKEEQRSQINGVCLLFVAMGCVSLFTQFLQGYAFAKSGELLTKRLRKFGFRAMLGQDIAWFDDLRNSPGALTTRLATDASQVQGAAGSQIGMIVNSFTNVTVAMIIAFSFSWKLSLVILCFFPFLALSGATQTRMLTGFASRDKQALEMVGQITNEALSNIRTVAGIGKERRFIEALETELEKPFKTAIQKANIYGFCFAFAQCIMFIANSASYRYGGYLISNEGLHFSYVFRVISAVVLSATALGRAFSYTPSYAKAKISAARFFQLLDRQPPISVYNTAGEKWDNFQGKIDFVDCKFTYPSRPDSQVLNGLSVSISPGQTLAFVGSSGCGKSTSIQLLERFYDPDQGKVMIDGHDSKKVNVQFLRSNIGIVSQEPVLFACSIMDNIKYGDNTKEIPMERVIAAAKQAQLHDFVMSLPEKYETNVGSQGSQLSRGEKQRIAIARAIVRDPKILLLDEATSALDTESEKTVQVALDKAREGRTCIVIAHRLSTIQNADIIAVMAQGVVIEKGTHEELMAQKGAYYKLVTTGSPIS

OATP1B1 = biological target: T1, OATP1B1 (Homo sapiens, UniProt Q9Y6L6); conditions: in vitro, cited from earlier work
T1 sequence (Q9Y6L6 1-691): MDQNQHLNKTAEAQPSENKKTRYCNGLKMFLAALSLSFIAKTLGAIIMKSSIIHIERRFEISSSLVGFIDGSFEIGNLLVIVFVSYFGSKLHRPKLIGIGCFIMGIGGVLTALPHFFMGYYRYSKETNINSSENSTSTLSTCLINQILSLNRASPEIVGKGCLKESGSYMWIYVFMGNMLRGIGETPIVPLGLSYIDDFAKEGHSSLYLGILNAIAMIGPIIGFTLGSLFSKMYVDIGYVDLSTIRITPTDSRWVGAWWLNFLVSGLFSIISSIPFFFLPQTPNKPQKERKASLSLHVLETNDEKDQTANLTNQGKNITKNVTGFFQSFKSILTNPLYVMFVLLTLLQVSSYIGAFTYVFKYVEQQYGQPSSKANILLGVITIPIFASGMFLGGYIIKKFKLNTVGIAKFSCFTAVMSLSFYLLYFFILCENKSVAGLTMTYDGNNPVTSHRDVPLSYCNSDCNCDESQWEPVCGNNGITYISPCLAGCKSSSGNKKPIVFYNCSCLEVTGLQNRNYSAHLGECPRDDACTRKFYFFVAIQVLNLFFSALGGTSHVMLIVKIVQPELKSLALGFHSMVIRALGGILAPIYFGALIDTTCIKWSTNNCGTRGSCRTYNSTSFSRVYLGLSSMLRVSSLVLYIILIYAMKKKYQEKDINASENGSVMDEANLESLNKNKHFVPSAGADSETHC

MRP2 = MRP2 (Homo sapiens, UniProt Q92887); conditions: in vitro, cited from earlier work
MRP2, sequence (Q92887 whole entry): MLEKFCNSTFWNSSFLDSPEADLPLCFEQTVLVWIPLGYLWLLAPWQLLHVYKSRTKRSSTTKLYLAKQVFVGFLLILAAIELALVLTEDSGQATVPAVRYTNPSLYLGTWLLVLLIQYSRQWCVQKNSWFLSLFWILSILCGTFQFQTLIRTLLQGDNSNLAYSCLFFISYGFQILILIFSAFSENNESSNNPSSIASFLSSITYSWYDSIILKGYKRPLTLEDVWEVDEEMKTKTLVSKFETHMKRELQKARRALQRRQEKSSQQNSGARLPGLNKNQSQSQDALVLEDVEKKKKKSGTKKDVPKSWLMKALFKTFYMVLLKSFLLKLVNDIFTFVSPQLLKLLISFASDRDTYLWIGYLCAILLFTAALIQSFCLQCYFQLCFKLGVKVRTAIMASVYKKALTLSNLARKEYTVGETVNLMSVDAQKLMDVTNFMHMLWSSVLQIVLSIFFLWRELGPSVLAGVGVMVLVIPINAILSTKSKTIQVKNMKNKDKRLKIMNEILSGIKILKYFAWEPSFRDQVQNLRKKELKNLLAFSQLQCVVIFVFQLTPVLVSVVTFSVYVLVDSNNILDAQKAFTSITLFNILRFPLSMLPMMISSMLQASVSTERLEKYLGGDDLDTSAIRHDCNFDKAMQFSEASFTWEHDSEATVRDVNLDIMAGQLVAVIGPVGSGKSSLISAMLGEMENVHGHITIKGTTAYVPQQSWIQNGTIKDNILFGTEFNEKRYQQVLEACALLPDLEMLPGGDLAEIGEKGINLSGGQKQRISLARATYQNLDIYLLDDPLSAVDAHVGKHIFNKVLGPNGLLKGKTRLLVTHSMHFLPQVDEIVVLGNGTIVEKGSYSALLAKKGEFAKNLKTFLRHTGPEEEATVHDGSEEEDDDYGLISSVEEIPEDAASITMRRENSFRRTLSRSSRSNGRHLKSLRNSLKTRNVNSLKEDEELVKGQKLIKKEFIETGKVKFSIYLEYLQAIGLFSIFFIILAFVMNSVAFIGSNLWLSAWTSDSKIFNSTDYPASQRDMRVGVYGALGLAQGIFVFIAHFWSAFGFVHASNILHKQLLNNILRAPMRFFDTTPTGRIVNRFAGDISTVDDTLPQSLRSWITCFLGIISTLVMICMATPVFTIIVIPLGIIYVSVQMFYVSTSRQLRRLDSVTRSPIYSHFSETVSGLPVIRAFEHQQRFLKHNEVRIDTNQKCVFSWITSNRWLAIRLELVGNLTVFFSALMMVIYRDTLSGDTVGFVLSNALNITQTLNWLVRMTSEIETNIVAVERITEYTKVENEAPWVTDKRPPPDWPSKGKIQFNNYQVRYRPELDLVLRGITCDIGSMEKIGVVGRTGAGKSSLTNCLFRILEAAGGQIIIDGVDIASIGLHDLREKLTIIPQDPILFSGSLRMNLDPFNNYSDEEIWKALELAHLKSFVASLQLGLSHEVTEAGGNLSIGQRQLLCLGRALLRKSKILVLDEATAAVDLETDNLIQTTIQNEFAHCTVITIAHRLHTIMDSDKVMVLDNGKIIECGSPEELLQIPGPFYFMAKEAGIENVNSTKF

[4] = PK of single agents vs fixed dose combinations (FDC), single oral dose in healthy volunteers; format: in vivo, human; conditions: for Cmax / AUC(0-t) / AUC(0-inf) / Tmax: human, plasma, oral; for Cmax: read-out: Cmax (mean ± SD); for AUC(0-t): read-out: AUClast (mean ± SD); for AUC(0-inf): read-out: AUC∞ (mean ± SD); for Tmax: read-out: tmax (median [range])
Procedure: SMV (100 mg), ODV (50 mg), and Compound (III) (800 mg) were administered as three different formulations or together as single doses in vivo to healthy volunteers. The arms of the study included: • Arm 1 (Reference Arm): Single oral doses of single agents, one SMV 100-mg capsule, one ODV 50-mg tablet as granule layered solid dispersion with copovidone and poloxamers, and two Compound (III) 400-mg tablets, administered together. • Arm 2: Single oral dose of fixed dose combination (FDC02): SMV 100 mg+ODV 50 mg as a spray dried solid dispersion with HPMC-AS L in a ratio ODV/HPMC-AS L 1/1 w/w+Compound (III) 800 mg • Arm 3: Single oral dose of fixed dose combination (FDC04): SMV 100 mg+ODV 50 mg as a spray dried solid dispersion with HPMC-AS L in a ratio ODV/HPMC-AS L 1/3 w/w+Compound (III) 800 mg • Arm 4: Single oral dose of fixed dose combination (FDC01): SMV 100 mg+ODV 50 mg as a spray dried solid dispersion with copovidone and poloxamers+Compound (III) 800 mg
PK parameters, including Cmax, tmax, AUClast, and AUC∞ were measured for Compound (III), ODV, SMV, and metabolites Compound A-I and Compound A-3 for each Arm of the study. Arms that included fixed dose combinations (FDC) (Arm 2, Arm 3, and Arm 4) were then compared to a single oral dose (Arm 1, the reference Arm). Table 9, Table 10, Table 11, Table 12 and Table 13 display relevant PK parameters and FIG. 9, FIG. 10, FIG. 11, FIG. 12, and FIG. 13 depict the plasma concentration over time of SMV, ODV, Compound A-1, and Compound A-3 for each Arm of the study.

P-gp = P-gp (Homo sapiens, UniProt P08183); conditions: in vitro; cited from earlier work
P-gp, sequence (P08183 whole entry): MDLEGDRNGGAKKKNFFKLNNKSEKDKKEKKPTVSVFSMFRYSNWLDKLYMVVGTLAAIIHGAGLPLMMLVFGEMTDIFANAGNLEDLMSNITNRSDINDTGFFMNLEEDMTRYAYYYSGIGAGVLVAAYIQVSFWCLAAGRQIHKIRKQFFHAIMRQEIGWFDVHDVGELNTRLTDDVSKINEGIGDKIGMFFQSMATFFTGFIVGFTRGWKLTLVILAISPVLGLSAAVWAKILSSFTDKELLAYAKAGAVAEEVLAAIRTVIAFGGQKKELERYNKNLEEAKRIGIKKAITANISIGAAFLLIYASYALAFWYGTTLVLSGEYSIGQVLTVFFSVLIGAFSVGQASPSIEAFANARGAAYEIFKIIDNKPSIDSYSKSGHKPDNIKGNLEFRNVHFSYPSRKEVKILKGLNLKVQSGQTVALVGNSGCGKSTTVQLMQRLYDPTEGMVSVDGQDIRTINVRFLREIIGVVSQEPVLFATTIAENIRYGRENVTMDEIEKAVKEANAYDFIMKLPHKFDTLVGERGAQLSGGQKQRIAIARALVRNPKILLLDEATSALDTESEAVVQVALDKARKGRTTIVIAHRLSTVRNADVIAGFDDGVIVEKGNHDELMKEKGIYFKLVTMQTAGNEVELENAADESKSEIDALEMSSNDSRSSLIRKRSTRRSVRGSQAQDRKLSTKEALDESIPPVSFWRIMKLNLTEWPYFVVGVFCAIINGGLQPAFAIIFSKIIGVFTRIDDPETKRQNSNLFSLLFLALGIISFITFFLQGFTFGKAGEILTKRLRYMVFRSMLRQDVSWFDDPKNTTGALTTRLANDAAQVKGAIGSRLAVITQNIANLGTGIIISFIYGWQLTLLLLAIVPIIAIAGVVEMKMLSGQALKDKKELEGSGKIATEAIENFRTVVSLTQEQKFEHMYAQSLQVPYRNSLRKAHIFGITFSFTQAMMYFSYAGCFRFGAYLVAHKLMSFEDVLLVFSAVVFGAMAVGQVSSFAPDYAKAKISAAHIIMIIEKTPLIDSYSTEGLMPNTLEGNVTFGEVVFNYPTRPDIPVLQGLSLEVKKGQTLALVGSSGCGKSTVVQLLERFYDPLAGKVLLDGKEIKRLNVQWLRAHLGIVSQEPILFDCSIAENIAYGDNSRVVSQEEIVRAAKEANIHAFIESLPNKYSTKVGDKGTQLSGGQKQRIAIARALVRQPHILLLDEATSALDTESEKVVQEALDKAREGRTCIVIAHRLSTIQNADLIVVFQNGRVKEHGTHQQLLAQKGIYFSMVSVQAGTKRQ

[5] = Arm 1 (reference): single agents together
[6] = Arm 2 (FDC02) vs reference (Arm 1)
[7] = Arm 3 (FDC04) vs reference (Arm 1)
[8] = Arm 4 (FDC01) vs reference (Arm 1)

Structure (SMILES): COc1ccc2c(O[C@@H]3C[C@H]4C(=O)N[C@]5(C(=O)NS(=O)(=O)C6CC6)C[C@H]5/C=C\CCCCN(C)C(=O)[C@@H]4C3)cc(-c3nc(C(C)C)cs3)nc2c1C [SMV, Simeprevir, reference compound]
- CYP inhibition potential (in words) [1]: limited
- AUC0-24 [2]: 41258 ng·h/mL
- Cmax [2]: 2957 ng/mL
- decrease of exposure with dose [3]: less than proportionally
- observed exposure versus anticipated [3]: higher than anticipated
- BSEP inhibition (in words) (BSEP): strong/moderate
- IC50 (BSEP; read-out: BSEP inhibition IC50): 1700 nM
- OATP1B1 inhibition (in words) (OATP1B1): strong in vitro inhibition
- IC50 (OATP1B1; read-out: OATP1B1 inhibition IC50): 300 nM
- MRP2 inhibition (in words) (MRP2): strong/moderate
- IC50 (MRP2; read-out: MRP2 inhibition IC50): 6000 to 19000 nM
- t1/2term (mean ± SD) [4, 5]: 8.3 ± 1.8 h
- Least Square Means Ratio, AUClast [4, 6]: 127.79%
- Least Square Means Ratio, AUC∞ [4, 6]: 126.19%
- Least Square Means Ratio, Cmax [4, 6]: 116.50%
- t1/2term (mean ± SD) ([4]; Arm 2: FDC02): 8.7 ± 2.3 h
- Least Square Means Ratio, AUClast [4, 7]: 133.85%
- Least Square Means Ratio, AUC∞ [4, 7]: 132.28%
- Least Square Means Ratio, Cmax [4, 7]: 115.24%
- t1/2term (mean ± SD) ([4]; Arm 3: FDC04): 9.1 ± 1.6 h
- Least Square Means Ratio, AUClast [4, 8]: 117.50%
- Least Square Means Ratio, AUC∞ [4, 8]: 116.00%
- Least Square Means Ratio, Cmax [4, 8]: 108.22%
- t1/2term (mean ± SD) ([4]; Arm 4: FDC01): 8.5 ± 1.5 h
- Cmax ([4]; Arm 1 (reference): single agents together, SMV 100-mg capsule, ODV 50-mg tablet, two Compound (III) 400-mg tablets): 777 ± 225 ng/mL
- AUC(0-t) [4, 5]: 9420 ± 3380 ng·h/mL
- AUC(0-inf) [4, 5]: 9920 ± 3430 ng·h/mL
- Tmax [4, 5]: 6 h
- Cmax ([4]; Arm 2: FDC02, SMV 100 mg + ODV 50 mg (ODV/HPMC-AS L 1/1 w/w) + Compound (III) 800 mg): 942 ± 431 ng/mL
- AUC(0-t) ([4]; Arm 2: FDC02): 12700 ± 6260 ng·h/mL
- AUC(0-inf) ([4]; Arm 2: FDC02): 13200 ± 6430 ng·h/mL
- Tmax ([4]; Arm 2: FDC02): 6 h
- Cmax ([4]; Arm 3: FDC04, SMV 100 mg + ODV 50 mg (ODV/HPMC-AS L 1/3 w/w) + Compound (III) 800 mg): 906 ± 321 ng/mL
- AUC(0-t) ([4]; Arm 3: FDC04): 12900 ± 5830 ng·h/mL
- AUC(0-inf) ([4]; Arm 3: FDC04): 13400 ± 6020 ng·h/mL
- Tmax ([4]; Arm 3: FDC04): 6 h
- Cmax ([4]; Arm 4: FDC01, SMV 100 mg + ODV 50 mg (copovidone and poloxamers) + Compound (III) 800 mg): 856 ± 318 ng/mL
- AUC(0-t) ([4]; Arm 4: FDC01): 11600 ± 6300 ng·h/mL
- AUC(0-inf) ([4]; Arm 4: FDC01): 12100 ± 6410 ng·h/mL
- Tmax ([4]; Arm 4: FDC01): 6 h
- P-gp inhibition (in words) (P-gp): strong/moderate
